According to patent publication US11299468B2, “Methods for producing 5-(halomethyl)furfural” (Origin Materials Operating, Inc., priority 2013, dated 2022):

Experiment: Partition coefficient screen of CMF between organic phase and acidic brine
Type: physicochemical
Procedure: The solvent system used in the methods and compositions described herein may also be selected based on the partition coefficient of the 5-(halomethyl)furfural in the reaction mixture. As used herein, “partition coefficient” refers to the ratio of molar concentration of 5-(halomethyl)furfural in the organic phase to 5-(halomethyl)furfural in the aqueous phase in the reaction mixture.
[…] […] A 1 mL sample was removed from each phase. The microwave vial was then resealed, and re-shaken.
The 1 mL samples were added to volumetric flasks, where the acidic brine solution was diluted with THF and an amount of 37% HCl (˜3 mL) sufficient to eliminate the formation of a biphase with THF. The organic phase sample was diluted with toluene. The dilutions were then put into 1 dram vials and saved.
Further sampling of each phase was repeated every […] for the duration of each 4-hour experiment resulting in a total of 6 samples per experiment. Throughout the course of the experiment the microwave vial was shaken every 20 minutes to promote contact between the two phases. The 6 samples of each experiment in this Example were then taken from the 1 dram vials and put into 1.5 ml vials and submitted to HPLC for CMF analysis.

[1] = No. 1, organic Toluene, aqueous HCl (11.66N), 25 °C
[2] = No. 2, organic Toluene, aqueous 1N H+ 11N Li+ 12N Cl−, 24.6 °C
[3] = No. 3, organic Toluene, aqueous 6N H+ 6N Li+ 12N Cl−, 25 °C
[4] = No. 4, organic Toluene, aqueous 2N H+ 10N Li+ 12N Cl−, 29.7 °C
[5] = No. 5, organic Toluene, aqueous 1N H+ 11N Li+ 12N Cl−, 50 °C
[6] = No. 6, organic Toluene, aqueous 6N H+ 6N Li+ 12N Cl−, 50 °C
[7] = No. 7, organic Toluene, aqueous 2N H+ 10N Li+ 12N Cl−, 50 °C
[8] = No. 8, organic Toluene, aqueous 2N H+ 4N Mg2+ 12N Cl−, 23.6 °C
[9] = No. 9, organic Toluene, aqueous 2N H+ 4M sodium triflate 2M Cl−, 27.1 °C
[10] = No. 10, organic Toluene, aqueous 2M H+ 10M Na+ 12M Cl−, 24.6 °C
[11] = No. 11, organic Toluene, aqueous 2M H+ 1:1 12M LiCl:saturated NaCl, 24.1 °C
[12] = No. 12, organic Toluene, aqueous 2M H+ saturated KCl, 24.2 °C
[13] = No. 13, organic Toluene, aqueous 2M H+ 1:1 12M LiCl:saturated KCl, 24.8 °C
[14] = No. 14, organic Toluene, aqueous 2M H+ 1:2 12M LiCl:saturated NaCl, 24.5 °C
[15] = No. 15, organic Toluene, aqueous 2M H+ 1:2 12M LiCl:saturated KCl, 24.5 °C
[16] = No. 16, organic Toluene, aqueous 2M H+ 1:1 12M LiCl:saturated MgCl2, 22 °C
[17] = No. 17, organic Toluene, aqueous 2M H+ 10M Zn2+ 24M Cl−, 22 °C
[18] = No. 18, organic Toluene, aqueous 2M H+ 4.13M Ca2+ 12.2M Cl−, 27 °C
[19] = No. 19, organic Toluene, aqueous 2M H+ 6M Ca2+ 14M Cl−, 27 °C
[20] = No. 20, organic Toluene, aqueous 2M H+ 4.13M Ca2+ 12.2M Cl−, 50 °C
[21] = No. 21, organic Toluene, aqueous 2M H+ 6M Ca2+ 14M Cl−, 50 °C
[22] = No. 22, organic Toluene, aqueous 2M H+ Satd. Rb, 24.5 °C
[23] = No. 23, organic Toluene, aqueous 2M H+ Satd. Cs, 24.5 °C
[24] = No. 24, organic Cepsa ® 550Q, aqueous 6N H+ 6N Li+ 12N Cl−, 23.3 °C
[25] = No. 25, organic Cepsa ® 550Q, aqueous 1N H+ 11N Li+ 12N Cl−, 24.5 °C
[26] = No. 26, organic Cepsa ® 900Q, aqueous 1N H+ 11N Li+ 12N Cl−, 22.8 °C
[27] = No. 27, organic Cepsa ® 900Q, aqueous 6N H+ 6N Li+ 12N Cl−, 26.5 °C
[28] = No. 28, organic Santovac ®-5, aqueous 1N H+ 11N Li+ 12N Cl−, 27.2 °C
[29] = No. 29, organic Santovac ®-5, aqueous 6N H+ 6N Li+ 12N Cl−, 23.7 °C
[30] = No. 30, organic Santovac ®-5, aqueous 2N H+ 10N Li+ 12N Cl−, 28.1 °C
[31] = No. 31, organic Santovac ®-5, aqueous 1N H+ 11N Li+ 12N Cl−, 50 °C
[32] = No. 32, organic Santovac ®-5, aqueous 6N H+ 6N Li+ 12N Cl−, 50 °C
[33] = No. 33, organic Santovac ®-5, aqueous 2N H+ 10N Li+ 12N Cl−, 50 °C
[34] = No. 34, organic Dichloroethane (4 mL), aqueous 37% HCl (4 mL), 28.5 °C
[35] = No. 35, organic Dichloroethane (17.6 mL), aqueous 37% HCl (4 mL), 28.5 °C

O=Cc1ccc(CCl)o1 [CMF, 5-(chloromethyl)furfural]
Normalized ratio (organic:aqueous) [1]: 3.0
log PC [1]: 0.48
Normalized ratio (organic:aqueous) [2]: 144.0
log PC [2]: 2.16
Normalized ratio (organic:aqueous) [3]: 17.4
log PC [3]: 1.24
Normalized ratio (organic:aqueous) [4]: 72.9
log PC [4]: 1.86
Normalized ratio (organic:aqueous) [5]: 110.0
log PC [5]: 2.04
Normalized ratio (organic:aqueous) [6]: 18.9
log PC [6]: 1.27
Normalized ratio (organic:aqueous) [7]: 79.6
log PC [7]: 1.9
Normalized ratio (organic:aqueous) [8]: 61.3
log PC [8]: 1.78
Normalized ratio (organic:aqueous) [9]: 8.3
log PC [9]: 0.92
Normalized ratio (organic:aqueous) [10]: 66.1
log PC [10]: 1.82
Normalized ratio (organic:aqueous) [11]: 90.1
log PC [11]: 1.95
Normalized ratio (organic:aqueous) [12]: 222.0
log PC [12]: 2.34
Normalized ratio (organic:aqueous) [13]: 71.1
log PC [13]: 1.85
Normalized ratio (organic:aqueous) [14]: 100.0
log PC [14]: 2
Normalized ratio (organic:aqueous) [15]: 119.0
log PC [15]: 2.07
Normalized ratio (organic:aqueous) [16]: 68.0
log PC [16]: 1.83
Normalized ratio (organic:aqueous) [17]: 0.6
log PC [17]: −0.23
Normalized ratio (organic:aqueous) [18]: 73.8
log PC [18]: 1.87
Normalized ratio (organic:aqueous) [19]: 80.0
log PC [19]: 1.9
Normalized ratio (organic:aqueous) [20]: 82.6
log PC [20]: 1.91
Normalized ratio (organic:aqueous) [21]: 141.7
log PC [21]: 2.15
Normalized ratio (organic:aqueous) [22]: 74.7
log PC [22]: 1.87
Normalized ratio (organic:aqueous) [23]: 41.3
log PC [23]: 1.61
Normalized ratio (organic:aqueous) [24]: 1.6
log PC [24]: 1.61
Normalized ratio (organic:aqueous) [25]: 20.3
log PC [25]: 1.31
Normalized ratio (organic:aqueous) [26]: 10.2
log PC [26]: 1.01
Normalized ratio (organic:aqueous) [27]: 0.9
log PC [27]: −0.04
Normalized ratio (organic:aqueous) [28]: 60.7
log PC [28]: 1.78
Normalized ratio (organic:aqueous) [29]: 6.6
log PC [29]: 0.82
Normalized ratio (organic:aqueous) [30]: 43.7
log PC [30]: 1.64
Normalized ratio (organic:aqueous) [31]: 65.6
log PC [31]: 1.81
Normalized ratio (organic:aqueous) [32]: 10.3
log PC [32]: 1.01
Normalized ratio (organic:aqueous) [33]: 55.9
log PC [33]: 1.74
Normalized ratio (organic:aqueous) [34]: 10.9
log PC [34]: 1.03
Normalized ratio (organic:aqueous) [35]: 11.6
log PC [35]: 1.7
